{
  "source": "paper PMC3098219",
  "about": "“Protective Efficacy of Serially Up-Ranked Subdominant CD8^+ T Cell Epitopes against Virus Challenges” (PLoS Pathogens, 2011)",
  "key": {"H-2K^d": {"molecular_target": "H-2K^d (Mus musculus, UniProt P01902)", "sequence (P01902 whole entry, looked up)": "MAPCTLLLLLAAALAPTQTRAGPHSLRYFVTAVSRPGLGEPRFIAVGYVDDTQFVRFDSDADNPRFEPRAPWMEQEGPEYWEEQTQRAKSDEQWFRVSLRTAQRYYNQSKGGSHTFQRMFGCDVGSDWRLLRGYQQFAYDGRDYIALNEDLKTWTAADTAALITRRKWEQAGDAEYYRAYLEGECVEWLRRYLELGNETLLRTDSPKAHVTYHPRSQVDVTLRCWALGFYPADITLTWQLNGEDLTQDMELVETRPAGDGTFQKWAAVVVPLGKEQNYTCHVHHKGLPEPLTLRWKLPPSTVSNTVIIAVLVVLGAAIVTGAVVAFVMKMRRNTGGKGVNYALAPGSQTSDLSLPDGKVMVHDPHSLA", "conditions": "ref [34]; cited from earlier work", "from_the_text": "Our research interests lie in development of the T cell component of HIV-1 vaccines stimulating protective CD8^+ T cell responses. The first-generation T cell immunogen, designated HIVA (Figure 1A), has served as an extremely useful tool for iterative improving of CD8^+ T cell induction by experimental vaccines in mice, non-human primates and humans [reviewed in [30]]. To increase the power of T cell analysis and study the role of subdominant determinants, H-2^d class I-restricted epitopes contained in the HIVA immunogen were mapped in detail. Thus, the most immunodominant epitope of ..."}, "[1]": {"tested_on": "splenocytes of pTHr.HIVA immunized mice", "test": "IFN-γ ELISPOT immunogenicity of HIVA", "assay_type": "cell-based, BALB/c mice", "conditions": "Figure 1B and D top"}, "[2]": {"tested_on": "CD8^+ splenocytes of DNA-immunized mice", "test": "ICS T cell avidity (peptide titration, CD107a/b and IFN-γ)", "assay_type": "cell-based, BALB/c mice", "conditions": "Figure 3B; individual determinants when dominant: H in group HIVA, P in HIVAdH, G1 in dHmP, NPP in dHmPG1; 3x 100 µg DNA; 5 h", "protocol": "T2 cell lines were incubated with decreasing peptide concentrations ranging from 100 µM to 0.1 µM indicated above the H peptide histogram and the cell surface peptide-loaded MHC complexes were detected by fluorochrome-conjugated mAb (DB Biosciences) and quantified using FACS flow cytometer. B) and C) Groups of 3 BALB/c mice were given 3x immunizations using 100 µg of DNA expressing the index or mutated forms of HIVA at 3 wk intervals and their T cell responses were analyzed 4 wk later. B) Splenocytes were assessed in an ICS assay using peptides indicated above the graphs at concentrations ranging from 10 to 10^−8 µM for 5 h. Cells were gated on IFN-γ-producing CD8^+ T cell populations positive (top) or negative (bottom) for CD107a/b. Note the different y-axis scales on the top and bottom graphs. C) The response kinetics of CD8^+ T cells re-stimulated with 0.1 µM peptides was assessed in an ICS assay in 1-h intervals for a period of 4 h. Data shown are as mean±SD of [CD8^+CD107a/b^+IFN-γ^+ cells at each time point (%)] ÷ [CD8^+CD107a/b^+IFN-γ^+ at 4 h (%)]. One out of two independent experiments is shown.\nWe also measured avidities of T cell responses recovered through the sequential HIVA epitope up-ranking. First, responsiveness of immune splenocytes following 3 plasmid DNA deliveries was measured in an ICS assay upon re-stimulation with peptide concentrations ranging from 10^−8 to 10 µM for 5 h (Figure 3A)."}, "EcoHIV/NDK": {"tested_on": "EcoHIV/NDK", "test": "EcoHIV/NDK challenge", "conditions": "Figure 7C and D; 2x 100 µg DNA, challenge 5 d later; splenocytes and peritoneal macrophages, qPCR"}, "CD8^+ T cells [3]": {"tested_on": "CD8^+ T cells", "test": "Immunodominance hierarchy of T cell responses to HIVA-derived epitopes", "assay_type": "cell-based, BALB/c mice", "conditions": "10 d after immunization"}, "CD8^+ T cells [4]": {"tested_on": "CD8^+ T cells", "test": "ICS of HIVB-induced responses pre- and post-EcoHIV challenge", "conditions": "Figure 7B, pTH.HIVB DNA twice"}, "[5]": {"tested_on": "splenocytes of DNA-immunized mice", "test": "IFN-γ ELISPOT and ICS with modified HIVA immunogens", "assay_type": "cell-based, BALB/c mice", "conditions": "dHmP-immunized group; ELISPOT, ICS and in vivo killing", "from_the_text": "To further investigate this phenomenon, we serially inactivated CD8^+ T cell epitopes in the order of their immunodominance. To maintain the HIVA protein integrity, epitopes P and G1 were mutated rather than deleted by substituting the anchor amino acid residues required for a strong binding to the H-2K^d molecule (Figure 2A). The resulting double and triple mutants of the HIVA immunogen were called dHmP and dHmPG1, respectively. […] Groups of BALB/c mice were immunized 2x using the modified HIVA immunogens vectored by plasmid DNA and the immune responses were measured in IFN-γ ELISPOT, ICS and in vivo killing assays. […] Second, consistently in all three assays, immune responses directed against subdominant epitopes were serially recovered, however, not to the same extent. […] Because the response to the G2 epitope remained undetectable even in the dHmPG1-immunized mice, overlapping 15/11 peptides across the whole HIVA immunogen were used again to search for another yet unidentified epitope of a higher rank. […] (Figure 2D). […] Thus, step-wise deletion of immunodominant CD8^+ T cell epitopes restores responses to the subdominant epitopes in the hierarchy.\nFigure 2 Serial up-ranking of epitopes. A) Groups of 4 BALB/c mice were immunized 2x i.m. with 100 µg of DNA at a 2-wk interval. Two wk later, splenocytes were assessed in an ELISPOT assay for production of IFN-γ upon re-stimulation with peptides indicated above. Shown are schematic diagrams of HIVA and the three modified immunogens with representative examples of the ELISPOT well images. B) Mice were immunized as in A and 4 wk later, splenocytes were assessed in an ICS assay to measure CD8^+ T cells secreting IFN-γ upon re-stimulation with peptide indicated in the top left corner. Group means±SD are shown. C) Identical groups of mice were assessed for cytolytic activity in an in vivo lysis of syngeneic peptide-pulsed cells transferred into naïve or vaccinated animals. Representative examples of dot plots are shown (top) and the peptide-specific lyses are expressed as a group mean±SD (bottom). D) Groups of 3 BALB/c mice were immunized 3x with 100 µg of DNA indicated above the dot plot in 2-wk intervals and the designated NPP peptide-specific responses were assessed by IFN-γ ICS 2 wk later. The FACS plots are representative examples with IFN-γ producing cells as a percentage of CD8^+ splenocytes shown in the top right panels. All experiments were repeated at least once. TEXT PRINTED IN THE PICTURE: (D) HIVA: 0.05 | (D) HIVAdH: 0.09 | (D) dHmP: 0.08 | (D) dHmPG1: 0.57 DOUBTS OF THE COPYIST ABOUT THIS PICTURE: Panel D: the numbers in the top right quadrants of the CD8 / IFN-γ dot plots are printed without a measure or unit, so they are copied as bare numbers.\nThe ELISPOT assay was performed using the Mouse IFN-γ ELISpot kit (Mabtech) according to the manufacturer's instructions. Spots were visualised using sequential applications of a biotin-conjugated secondary anti-IFN-γ mAb (R4-6A2, Rat IgG1), an alkaline phosphatase and a chromogenic substrate (Bio-Rad) and counted using the AID ELISpot Reader System (Autoimmun Diagnostika)."}, "[6]": {"tested_on": "CD8^+ splenocytes of immunized mice", "assay_type": "cell-based, BALB/c mice", "conditions": "HIVAdH vs HIVA immunization; ex vivo ICS, Figure 1D"}},
  "note": "Entries after “also recorded” stand apart in the source; their conditions may differ.",
  "data": [
    {"sequence": "AMQMLKDTI [G1, H-2K^d-restricted, Gag residues 197–205]", "values": [
      {"measurement": "MHC class I restriction (H-2K^d)", "setting": "H-2K^d", "result": "H-2K^d-restricted"},
      {"measurement": "T cell response to G1 from HIVA", "setting": "[1]", "result": "hardly detectable responses"},
      {"measurement": "peak IFN-γ^+CD107a/b^+CD8^+ cell frequencies at 10 µM peptide", "setting": "[2]", "result": "3.8 % of total CD8^+ splenocytes"},
      {"measurement": "protection against EcoHIV/NDK challenge", "setting": "EcoHIV/NDK", "result": "sufficient to induce protective efficacy; also recorded: enhanced clearance of EcoHIV/NDK infection"},
      {"measurement": "hierarchy of T cell responses against HIVA-derived epitopes", "setting": "CD8^+ T cells [3]", "result": "H>P>>G1>NPP>>G2"},
      {"measurement": "CD8^+ T cell response after HIVB vaccination", "setting": "CD8^+ T cells [4]", "result": "the only detectable CD8^+ T cell response"},
      {"measurement": "restoration of G1-specific T cell responses", "setting": "[5]", "result": "significant restoration of G1-specific T cell responses, now comparable to those against H and restored P"},
      {"measurement": "frequencies of IFN-γ-producing CD8^+ cells", "setting": "[6]", "result": "noticeably, though not significantly increased"}
    ]}
  ]
}
